Results as given in US20230226047A1, “COMBINATION THERAPY FOR TREATMENT OF CANCERS” (Health Research, Inc., priority 2019, published 2023).
“Also recorded” adds a separate entry of the source.

Legend:
[1] = system: OVA-overexpressing TRAMP C2 cells; experiment: Flow cytometry of antigen-bound MHC (OVA-bound H2Kb); format: cell-based, murine; conditions: 48 hours, FIG. 7C-D
Description: OVA overexpression: Soluble ovalbumin (OVA) gene, which was amplified from pCI-neo-sOVA (Addgene plasmid 25098), and monomeric enhanced green fluorescent protein (mEGFP) gene, which was amplified from mEGFP-N1 (Addgene plasmid 54767), were genetically fused via P2A translational skipping sequence and cloned in the Sleeping Beauty transposon plasmid with the human elongation factor 1α promoter. This plasmid, pT2-EF-OVA-mEGFP, was electroporated together with the Sleeping Beauty Transposase plasmid, pCMV(CAT)T7-SB100 (a gift from Zsuzsanna Izsvak; Addgene plasmid #34879), into TRAMP-C2 by Nucleofector 4D instrument. The electroporated cells were kept in maintenance medium (DMEM supplemented with 10% FBS, 0.005 mg/ml bovine insulin, 1 nM DHT and cell sorted based on mGFP expression using FACS Aria I cell sorter. The expression of OVA on sorted cells were confirmed by western blotting using rabbit polyclonal OVA antibody (ab186717) at 1:4000 dilution and flow cytometry using PE anti-mouse H-2K^b bound to SIINFEKL (BioLegend) before incubating with or without MCTP-39 for 48 hours. The expression of OVA was analyzed after 48 hours by flow cytometry using BDLSRIIA cytometer and data was analyzed by FCS express 7 Research Edition.

[2] = system: TRAMP C2 cells grafted in NSG mice; experiment: TRAMP C2 subcutaneous graft in immunocompromised NSG mice; format: in vivo, mouse; conditions: 10 mg/kg, four weeks, p=0.1461, permutation test, FIG. 8B
Protocol: (§1) Immunotherapy in prostate cancer (PCa) lags behind the progresses obtained in other cancer types partially because of its limited immune infiltration. While a few studies reported increased homing of immune cells in response to androgen deprivation therapy (ADT), the mechanism by which this occurs is still poorly understood. Using TCGA PCa RNASeq data patients were divided into top/bottom 30% based on the expression of WHSC1 and DFS was calculated for both groups. Publicly available ChIPSeq data were obtained from Cistrome and integrated with the available RNASeq data. RNASeq, ATACSeq and EPIC Infinium MethylArrays were analyzed using R Bioconductor packages comparing C42 cells with or without stable knockdown on WHSC1. Flow cytometry was used to measure MHC levels, MHC-bound OVA and tumor infiltration. C57B6 and NSG mice were subcutaneously grafted with TRAMP C2 cells and treated with MCTP39 (10 mg/kg); tumor size was monitored over time and curves compared using permutation analyses. All analyses use a significance threshold of 0.05.
Mice and in vivo experiments: Male C57B/6J mice (6-8 weeks of age) and NSG mice (10-12 weeks of age) were obtained from the Roswell Park's Center For Immunotherapy breeding colonies. […] Tumor volume was monitored weekly with an electronic caliper and calculated as V=(W^2×L)/2, where Vis tumor volume, W is tumor width and L is tumor length. […]

[3] = system: TRAMP C2 cells grafted in C57B/6 mice; experiment: TRAMP C2 subcutaneous graft in immunocompetent C57B/6 mice; format: in vivo, mouse
Protocol: as §1
Mice and in vivo experiments: Male C57B/6J mice (6-8 weeks of age) and NSG mice (10-12 weeks of age) were obtained from the Roswell Park's Center For Immunotherapy breeding colonies. All in vivo experiments were made following institutional and IACUC regulations. In vivo experiments were not blinded. C2 cells (1×10^6 cells/100 μl) were injected subcutaneously into the right flank of male C57BL/6J mice (n=6/group) or NSG mice (n=5/group) using a 27 G needle. Sample size was chosen based on pilot studies and chosen to include the potential loss of mice prior treatment. Tumor volume was monitored weekly with an electronic caliper and calculated as V=(W^2×L)/2, where Vis tumor volume, W is tumor width and L is tumor length. When tumors reached 100 mm^3, mice were randomized prior treatment with either MCTP-39 (10 mg/kg 5×/week/4 weeks) or vehicle control. Mice were euthanized either when tumors reached […] in any dimension, as per Institutional IACUC regulations, when mice show signs of advanced disease or after 4 weeks of treatment. Tumors were harvested and weighted, single cells suspension was prepared using the Tumor dissociation kit (Miltenyi Biotech) as per manufacturing instructions prior flow cytometry analysis.
Flow cytometry and antibodies: Single cell suspension from tumors was stained the antibodies listed in Table S3 (FIG. 14) for 20 min at 4° C. After staining, cells were washed and fixed with fixation buffer for 15 min at 4° C. followed by washing 2× with FACS buffer. Cells were resuspended in 200 μl of FACS buffer before acquiring data on BDLSR IIA flow cytometer. Data were analyzed using FCS express 7 Research Edition.
Statistical methods: Survival analysis was performed dividing patients based on the upper/lower 25% of the expression levels of WHSC1, significance, HR and confidence intervals were calculated using cox proportional hazard model available in the R package survival. […] Significance for the AUC analysis was calculated by simulating 10,000 AUCs using randomly selected genes in the RNASeq dataset. The empirical p value was calculated by dividing the number of expected/simulated AUCs higher than our observed value by 10,000 (number of simulations). Significance when comparing two groups was calculated via two-tailed Student's t.test at a significance threshold of 0.05. […]

TRAMP C2 cells = experiment: Flow cytometry of MHC expression after MCTP-39 and IFNg treatment, murine TRAMP C2 cells; format: cell-based; conditions: combined treatment with MCTP-39 and IFNg, FIG. 7B
Protocol: (§2) Cell proliferation: Knock down of WHSC1 in C4-2 and TRAMP C-2 cells is discussed in previous sections. Cells were counted at 48, 96 and 144 hours. For pharmacological inhibition, cells either C4-2 or TRAMP C2 were seeded overnight at 4×10^3 cells per 100 μl media in a 96 well plate, the following day cells were treated with vehicle control or different concentrations of MCTP-39 (0-10 μM) for 48 hours. After 48 hours, C4-2 or TRAMP C-2 cells were either counted or used for staining with MHCI/II antibodies. Briefly cells were detached using trypsin and washed with FACS buffer for 5 minutes at 300 g. The pellet was resuspended in FACS buffer and stained with MHC-I/II antibodies for 20 minutes at 4 C. After incubation, cells were washed with FACS buffer 2× and resuspended in 200 μl of FACS buffer before acquiring the data on a flow cytometer.

C42 cells = experiment: Flow cytometry of MHC expression after MCTP-39 and IFNg treatment, human C42 cells; format: cell-based; conditions: combined treatment with MCTP-39 and IFNg, FIG. 7A
Protocol: as §2

[4] = C57B/6 mice, tumors at endpoint, flow cytometry, FIG. 8C

Structure (SMILES): NNc1nc2ccccc2[nH]c1=S [MCTP39]
- OVA-bound H2Kb fraction [1]: increased
- Tumor growth [2]: limited and non-significant effect; also recorded: Not Significant; also recorded: not observed
- Tumor growth ([3]; C57B/6 mice, 10 mg/kg IP for four weeks, p=0.0023, permutation test, FIG. 8A, 10 mg/kg): significantly reduced
- Tumor weight ([3]; C57B/6 mice, at endpoint, FIG. 8C): reduced
- CD8+ T cells infiltration [3, 4]: increased
- H2Kb (MHC) expression on the tumor [3, 4]: increased
- intratumoral CD8+PD1+ T cells ([3]; preliminary in vivo data): may increase
- upregulating murine H2Kb I-A/I-E (TRAMP C2 cells): additive effect
- upregulating HLA-B7, HLA-F, HLA-E, HLA-DQ, HLA-DM (C42 cells): additive effect
